Assay results as given in article PMC7895427, “A stapled peptide mimetic of the CtIP tetramerization motif interferes with double-strand break repair and replication fork protection” (Science Advances, 2021).
Positions of bridges follow the written chain, without caps; N, C: chain ends. Non-standard residues stand in square brackets, D forms with d. Residues, ends and D or L forms follow the SMILES beside them. R8 = C=CCCCCCC[C@@](C)(N)C(=O)O; S5 = C=CCCC[C@](C)(N)C(=O)O

Tests used:
[1] = CD spectroscopy and CD thermal denaturation; assay type: physicochemical; settings: 210 nm, 25° until 90°C, ddH2O
Protocol: CD spectroscopy data were collected on a Jasco J-710 spectropolarimeter. A total of 0.2 or 0.05 mg/ml of LP^18–28 or SP^18–28 in ddH2O was measured with a 1-mm path length cuvette. CD spectra were recorded at 0.5-nm intervals between 190 and 260 nm at 25°C. CD thermal denaturation data were recorded at 210 nm at 0.2°C intervals starting at 25° until 90°C.

[2] = test system: HeLa cells; experiment: Clonogenic survival assay; assay type: cell-based; settings: 10 μM, fig. S7A
Protocol: (§1) Two hundred cells per well were seeded into poly-L-lysine (Sigma-Aldrich)–coated 24-well plates and the next day treated with respective drugs (CPT, Sigma-Aldrich; olaparib, Selleck Chemicals) and peptides (total volume: 300 μl per well). For details, see figure legends. After 10 days of growth, cells were fixed with crystal violet solution [0.5% crystal violet and 20% ethanol (w/v)]. Plates were scanned, and survival was analyzed with the ImageJ plugin Colony Area using the parameter colony intensity as readout ([47]).

[3] = test system: MCF10A; experiment: Clonogenic survival assay; assay type: cell-based; settings: 10 μM peptide 24 hours, 10 days growth; BRCA1 wt nontumorigenic cell line
Protocol: as §1

[4] = test system: MCF7; experiment: Clonogenic survival assay; assay type: cell-based; settings: 10 μM peptide 24 hours, 10 days growth; BRCA1 wt breast cancer cell line
Protocol: as §1

[5] = test system: RPE1; experiment: Clonogenic survival assay; assay type: cell-based; settings: 10 μM peptide 24 hours, 10 days growth; BRCA1 wt nontumorigenic cell line
Protocol: as §1

[6] = test system: U2OS cells; experiment: EdU incorporation, cell cycle distribution and cell proliferation; assay type: cell-based; settings: fig. S5, E and F; proliferation at 5 μM
Protocol: HeLa cells were seeded into six-well plates and incubated with peptides in a volume of 2 ml for varying time points. Cells were harvested by trypsinization, washed, and resuspended in PBS before subjecting them to flow cytometry analysis. FITC intensity was measured with an Attune Nxt flow cytometer equipped with a 488-nm laser and 530/30 band-pass filter. Analysis of 5-Ethynyl-2′-deoxyuridine (EdU) incorporation was carried out using the Click-iT EdU technology (Thermo Fisher Scientific) as described in the manufacturer’s instructions. A minimum of 20,000 events were recorded.
A total of 125 and 250 U2OS cells were seeded in triplicates in 96-well plates in a volume of 90 μl. Twenty-four hours after seeding, 10 μl of medium only or medium with the indicated peptides was added to the wells reaching a final peptide concentration of 5 μM. Cell proliferation was monitored using a CellTiter-Blue–based (Promega) approach at specific time points (0, 2, 5, and 7 days after peptide treatment). In brief, 20-μl CellTiter-Blue reagent (Promega) was added to the wells, incubated for 4 hours, and fluorescence intensity was measured at 560/590 nm using a SpectraMax M5 microplate reader (Molecular Devices).

[7] = molecular target: T1, full-length CtIP-wt (Homo sapiens, UniProt Q99708); experiment: Blue native PAGE of full-length CtIP incubated with peptides; assay type: biochemical; settings: 1- to 32-fold molar excess SP^18–28, 32-fold LP^18–28, 30 min RT
T1 construct: Full-length CtIP was purified according to ([14]); 3xFLAG; made in house
Protocol: Reactions were assembled in a volume of 10 μl with a 1.5 μM final concentration of CtIP and either 0, 1.5, 3, 6, 12, 24, or 48 μM LP/SP^18–28 in buffer A [10 mM tris (pH 8.0), 25 mM NaCl, 5% glycerol, and 0.5 mM dithiothreitol (DTT)] and 1× Blue Native Loading buffer [50 mM bis-tris (pH 7.2), 6 N HCl, 50 mM NaCl, 10% (w/v) glycerol, and 0.001% Ponceau S]. After incubation for 30 min at RT, samples were loaded onto a NativePAGE Novex 3 to 12% bis-tris gel (Invitrogen) and run at 150 V for 75 min. Gels were fixed in 40% methanol (MeOH) and 10% acetic acid and destained with 8% acetic acid.

[8] = test system: U2OS^GFP-CtIP-wt; experiment: Laser microirradiation, GFP-CtIP recruitment to γH2AX-decorated laser stripes; assay type: cell-based; settings: 10 μM peptide, 24 hours, fixed 30 min after microirradiation; n = 4
Protocol: Laser microirradiation was carried out as described previously ([25]). Briefly, cells were grown in 10 μM 5-bromo-2′-deoxyuridine (BrdU) for 24 hours before irradiation. Laser microirradiation was performed using a MMI CELLCUT system containing an ultraviolet (UV) A laser of 355 nm. Energy output was set to 50%, and each cell was exposed to laser beam for <300 ms. Cells were released for 30 min before fixation in 4% formaldehyde (w/v) in PBS for 15 min and permeabilization with 0.5% Triton X-100 (w/v) in PBS for 5 min at RT. After blocking with 3% FCS (w/v) in PBS for 1 hour, cells were stained with primary antibodies (table S3) for 2 hours. Staining with secondary antibodies (table S3) was performed for 1 hour. Coverslips were mounted with Vectashield supplemented with DAPI (4′,6-diamidino-2-phenylindole; Vector Laboratories), and images were acquired on a Leica DM6, 63× objective. For CtIP foci analyses, cells were fixed in 4% formaldehyde (w/v) in PBS for 15 min before permeabilization with 0.5% Triton X-100 (w/v) in PBS for 5 min at RT. A blocking step with 3% FCS (w/v) in PBS for 1 hour was followed by primary (2-hour) and secondary (1-hour) staining at RT.

[9] = test system: U2OS EGFP-HR; experiment: HR reporter assay; assay type: cell-based; settings: 10 μM peptide, 24 hours; GFP-positive cells by flow cytometry; n = 4
Protocol: HR reporter assay was performed as described previously ([45], [46]). Briefly, U2OS EGFP-HR were seeded into a 12-well plate and the day after transfected with pCBA I-SceI expression plasmid using jetPRIME transfection reagent (Polyplus). Four hours later, medium was exchanged, and cells were incubated with peptides for 24 hours in 1-ml total volume. Twenty-four hours later, medium was replaced, and cells were harvested 48 hours after I-SceI transfection. A-EJ reporter assay was performed according to ([10]) with some minor modifications. Specifically, U2OS EGFP-aEJ were seeded into six-well plates and siRNA transfected. Six hours later, cells were transfected with I-SceI expression plasmid (pCBA) using Fugene 6 (Promega). Medium was exchanged 24 hours after and replaced with 2-ml fresh medium and the peptides (10 μM). Twenty-four hours later, medium was again replaced with fresh medium without peptides, and 72 hours after I-SceI transfection, cells were harvested. GFP expression (readout for HR and a-EJ frequency) was measured by flow cytometry using the Attune Nxt flow cytometer equipped with a 488-nm laser and 530/30 band-pass filter. A minimum of 20,000 events were recorded.

T1 sequence (Q99708 whole entry): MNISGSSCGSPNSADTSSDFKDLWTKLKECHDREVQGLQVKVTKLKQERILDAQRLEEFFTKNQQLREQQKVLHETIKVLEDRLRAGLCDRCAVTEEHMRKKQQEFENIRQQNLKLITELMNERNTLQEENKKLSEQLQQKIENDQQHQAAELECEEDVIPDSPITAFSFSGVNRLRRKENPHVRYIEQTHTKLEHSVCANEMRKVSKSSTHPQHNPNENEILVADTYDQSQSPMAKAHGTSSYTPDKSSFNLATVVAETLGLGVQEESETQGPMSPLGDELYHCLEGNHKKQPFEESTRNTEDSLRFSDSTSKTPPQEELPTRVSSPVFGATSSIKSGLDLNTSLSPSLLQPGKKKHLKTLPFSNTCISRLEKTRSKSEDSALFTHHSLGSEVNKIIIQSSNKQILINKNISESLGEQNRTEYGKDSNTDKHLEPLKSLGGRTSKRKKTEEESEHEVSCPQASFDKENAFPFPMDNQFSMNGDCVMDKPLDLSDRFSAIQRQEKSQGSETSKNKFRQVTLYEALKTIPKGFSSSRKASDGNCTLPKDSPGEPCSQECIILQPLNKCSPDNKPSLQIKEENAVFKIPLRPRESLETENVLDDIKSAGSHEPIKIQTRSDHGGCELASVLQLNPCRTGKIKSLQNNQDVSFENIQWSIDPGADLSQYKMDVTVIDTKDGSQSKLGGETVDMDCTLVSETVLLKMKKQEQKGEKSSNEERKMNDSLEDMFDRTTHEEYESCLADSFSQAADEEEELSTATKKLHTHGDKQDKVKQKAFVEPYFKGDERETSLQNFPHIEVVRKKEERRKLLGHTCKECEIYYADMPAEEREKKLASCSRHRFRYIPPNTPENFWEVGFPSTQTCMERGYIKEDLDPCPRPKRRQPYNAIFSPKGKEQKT

effect on CtIP-wt oligomeric state [7]	Compound	heat stability of secondary structure (CD thermal denaturation) [1]	tolerability of acute peptide treatment (clonogenic) ([2]; acute (24-hour) treatment)	cytotoxicity of chronic peptide treatment on its own (clonogenic) ([2]; prolonged chronic treatment)	cell survival (clonogenic) [3]	cell survival (clonogenic) [4]	cell survival (clonogenic) [5]	bulk DNA replication, cell cycle distribution and cell proliferation [6]	CtIP recruitment to γH2AX-decorated laser stripes [8]	HR frequency of I-SceI–induced DSBs [9]
–	CC(=O)N[C@@H](CO)C(=O)N[C@]1(C)CCCCCCC=CCCC[C@@](C)(C(=O)N[C@@H](CC(C)C)C(=O)N[C@@H](CCCCN)C(N)=O)NC(=O)[C@H]([C@@H](C)O)NC(=O)[C@H](Cc2c[nH]c3ccccc23)NC(=O)[C@H](CC(C)C)NC(=O)[C@H](CC(=O)O)NC(=O)[C@H](CCCCN)NC(=O)[C@H](Cc2ccccc2)NC1=O [SP^18–28] (Ac-S[R8]FKDLWT[S5]LK-NH2; staple 2-9)	no unfolding could be observed at temperatures of up to 90 °C	well tolerated	extreme cytotoxicity	did not perceive a negative impact on cell survival	did not perceive a negative impact on cell survival	did not perceive a negative impact on cell survival	neither interferes with bulk DNA replication nor causes any significant changes in cell cycle distribution and cell proliferation	–	–
no apparent structural changes	Ac-SDFKDLWTKLK-NH2 [LP^18–28]	–	–	–	–	–	–	–	no significant effect	no measurable impact
